The results in this text go back to patent publication US20240043427A1 (Gilead Sciences, Inc., priority 2020, published 2024).

A value given as a limit tells only on which side of the number the result lay.

Assay [1] has as its target T1, CD73 (Homo sapiens (Human), UniProt P21589). The assay is classed as biochemical. The settings on record: 1 mM NaH2PO4 in enzyme buffer, CD73 0.3 nM, AMP 15 uM.
Assay [2] has as its target T1, CD73. As to the kind of experiment: MDA-MB-231 Cell Based CD73 Activity Assay (DMEM). The settings on record: MDA-MB-231-GFP cells, DMEM medium with 10% human plasma, 200 uM AMP.

T1 sequence (P21589 27-574): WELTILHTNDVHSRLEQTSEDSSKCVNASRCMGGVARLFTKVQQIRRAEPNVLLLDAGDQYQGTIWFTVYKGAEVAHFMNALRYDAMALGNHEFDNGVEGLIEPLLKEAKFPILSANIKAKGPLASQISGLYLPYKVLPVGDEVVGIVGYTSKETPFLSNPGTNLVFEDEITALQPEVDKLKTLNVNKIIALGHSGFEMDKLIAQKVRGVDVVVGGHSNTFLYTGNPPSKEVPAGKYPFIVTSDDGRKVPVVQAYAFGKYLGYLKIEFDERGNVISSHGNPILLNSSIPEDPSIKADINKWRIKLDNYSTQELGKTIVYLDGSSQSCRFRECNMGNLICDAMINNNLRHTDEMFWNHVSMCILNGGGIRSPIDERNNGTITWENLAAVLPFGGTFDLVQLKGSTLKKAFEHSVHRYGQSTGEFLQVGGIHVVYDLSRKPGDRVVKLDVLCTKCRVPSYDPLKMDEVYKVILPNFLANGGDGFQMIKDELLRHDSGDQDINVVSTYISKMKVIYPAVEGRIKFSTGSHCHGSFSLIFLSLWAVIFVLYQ

As usually defined, the IC50 is the point on the concentration scale where inhibition reaches its midpoint. Lower therefore signals greater potency. A word on the EC50: it is the concentration needed to bring the measured effect to its halfway point. A lower EC50 goes with a more potent agent. Take `O=c1[nH]cc(-c2cc(N3CCC(c4ccccc4C(F)(F)F)C3)c3nccn3n2)c(=O)[nH]1` (centres unmarked) [Example 250, 5-(8-(3-(2-(trifluoromethyl)phenyl)pyrrolidin-1-yl)imidazo[1,2-b]pyridazin-6-yl)pyrimidine-2,4(1H,3H)-dione]: it took 110 nM to reach half-maximal inhibition against CD73 [1] (IC50). Moreover, the EC50 on CD73 [2] worked out at 687 nM.
As to `CC1(C)CN(c2cc(-c3c[nH]c(=O)[nH]c3=O)nn3cc(Cl)nc23)CC1(F)F` [Example 328, 5-(2-chloro-8-(3,3-difluoro-4,4-dimethylpyrrolidin-1-yl)imidazo[1,2-b]pyridazin-6-yl)pyrimidine-2,4(1H,3H)-dione], the half-maximal inhibitory concentration (IC50) against CD73 [1] was determined as 3.68 nM. At CD73 [2], this molecule yielded an EC50 of 40.5 nM.
With `O=c1[nH]cc(-c2cc(N3CCC(c4ccc(C(F)(F)F)cc4)C3)c3ncc(F)n3n2)c(=O)[nH]1` (centres unmarked) [Example 262, 5-(3-fluoro-8-(3-(4-(trifluoromethyl)phenyl)pyrrolidin-1-yl)imidazo[1,2-b]pyridazin-6-yl)pyrimidine-2,4(1H,3H)-dione], half-maximal inhibition against CD73 [1] (IC50) required 73.4 nM. Further, the EC50 at CD73 [2] stood at 565 nM.
As to `N#Cc1ccc([C@H]2C[C@@H]2c2cc(-c3c[nH]c(=O)[nH]c3=O)nn3c(F)cnc23)cn1` (racemic) [Example 375, 5-((1S,2S)-2-(6-(2,4-dioxo-1,2,3,4-tetrahydropyrimidin-5-yl)-3-fluoroimidazo[1,2-b]pyridazin-8-yl)cyclopropyl)picolinonitrile], the IC50 against CD73 [1] stood at 2.83 nM. Besides, the EC50 on CD73 [2] stood at 11.2 nM.
In the case of `N#Cc1ccc([C@H]2C[C@@H]2c2cc(-c3c[nH]c(=O)[nH]c3=O)nn3c(F)cnc23)cc1` [Example 158, 4-((1S,2S)-2-(6-(2,4-dioxo-1,2,3,4-tetrahydropyrimidin-5-yl)-3-fluoroimidazo[1,2-b]pyridazin-8-yl)cyclopropyl)benzonitrile], half-maximal inhibition at CD73 [1] (IC50) was put at 0.55 nM. The same molecule came in with an EC50 at CD73 [2] of 2.52 nM.
In the case of `O=c1[nH]cc(-c2cc(NCCc3cccc(F)c3)c3nccn3n2)c(=O)[nH]1` [Example 492, 5-(8-((3-fluorophenethyl)amino)imidazo[1,2-b]pyridazin-6-yl)pyrimidine-2,4(1H,3H)-dione], the IC50 at CD73 [1] was 25.6 nM. Further, at CD73 [2], the 50% effective concentration (EC50) turned out to be 58.4 nM.
As to `O=c1[nH]cc(-c2cc([C@H]3C[C@@H]3c3ccc4cnn(CC(F)(F)F)c4c3)n3ncc(F)c3n2)c(=O)[nH]1` [Example 716, 5-(3-fluoro-7-((1S,2S)-2-(1-(2,2,2-trifluoroethyl)-1H-indazol-6-yl)cyclopropyl)pyrazolo[1,5-a]pyrimidin-5-yl)pyrimidine-2,4(1H,3H)-dione], the IC50 on CD73 [1] came out at 0.35 nM. This molecule displayed an EC50 on CD73 [2] of 0.28 nM.
`O=C(NC1CN(c2cc(-c3c[nH]c(=O)[nH]c3=O)nn3ccnc23)CC1(F)F)c1ccccc1` (centres unmarked) [Example 209, N-[1-[6-(2,4-dioxo-1H-pyrimidin-5-yl)imidazo[1,2-b]pyridazin-8-yl]-4,4-difluoro-pyrrolidin-3-yl]benzamide] yielded a half-inhibitory concentration (IC50) against CD73 [1] of 2.8 nM. The half-maximal effective concentration (EC50) at CD73 [2] was determined as 24.2 nM.
As to `O=c1[nH]cc(-c2cc(N3C4CCC3CC4)c3nccn3n2)c(=O)[nH]1` [Example 646, 5-(8-(7-azabicyclo[2.2.1]heptan-7-yl)imidazo[1,2-b]pyridazin-6-yl)pyrimidine-2,4(1H,3H)-dione], at CD73 [1], the 50% inhibitory concentration (IC50) is greater than 250 nM. Besides, the concentration giving a half-maximal response (EC50) on CD73 [2] was found to be 338 nM.
On CD73 [1], `C[C@H](NC(=O)O[C@H]1CN(c2cc(-c3c[nH]c(=O)[nH]c3=O)nn3ccnc23)CC1(F)F)C(F)(F)F` [Example 547, (S)-1-(6-(2,4-dioxo-1,2,3,4-tetrahydropyrimidin-5-yl)imidazo[1,2-b]pyridazin-8-yl)-4,4-difluoropyrrolidin-3-yl ((S)-1,1,1-trifluoropropan-2-yl)carbamate] gave a half-maximal inhibitory concentration (IC50) of 0.31 nM. At CD73 [2], the half-maximal effective concentration (EC50) is 0.13 nM.
For `O=c1[nH]cc(-c2cc([C@H]3C[C@@H]3c3ccc4c(F)nn(CC(F)(F)F)c4c3)c3ncc(F)n3n2)c(=O)[nH]1` [Example 697, 5-(3-fluoro-8-((1S,2S)-2-(3-fluoro-1-(2,2,2-trifluoroethyl)-1H-indazol-6-yl)cyclopropyl)imidazo[1,2-b]pyridazin-6-yl)pyrimidine-2,4(1H,3H)-dione], in that order: 0.65 nM and 0.27 nM.
With `O=c1[nH]cc(-c2cc([C@H]3C[C@@H]3c3ccc4onc(C(F)(F)F)c4c3)c3nccn3n2)c(=O)[nH]1` (racemic) [Example 327, 5-(8-((1S,2S)-2-(3-(trifluoromethyl)benzo[d]isoxazol-5-yl)cyclopropyl)imidazo[1,2-b]pyridazin-6-yl)pyrimidine-2,4(1H,3H)-dione], half-maximal inhibition against CD73 [1] (IC50) was put at 1.79 nM. Moreover, the 50% effective concentration (EC50) at CD73 [2] was determined as 50 nM.
In turn, `O=c1[nH]cc(-c2cc(N3CC(F)(F)C4(CCC4)C3)c3nccn3n2)c(=O)[nH]1` [Example 325, 5-(8-(8,8-difluoro-6-azaspiro[3.4]octan-6-yl)imidazo[1,2-b]pyridazin-6-yl)pyrimidine-2,4(1H,3H)-dione] came in with an IC50 at CD73 [1] of 1.7 nM. Further, a half-maximal effect on CD73 [2] (EC50) was put at 11.2 nM.
In turn, `O=c1[nH]cc(-c2cc(N3CCC4(COC4)C3)c3nccn3n2)c(=O)[nH]1` [Example 653, 5-(8-(2-oxa-6-azaspiro[3.4]octan-6-yl)imidazo[1,2-b]pyridazin-6-yl)pyrimidine-2,4(1H,3H)-dione] had a half-inhibitory concentration (IC50) against CD73 [1] of 25.3 nM. The molecule also gave a concentration for a half-maximal effect (EC50) at CD73 [2] of 130 nM.
On to `O=c1[nH]cc(-c2cc([C@H]3C[C@@H]3c3ncc4cnn(CC(F)(F)F)c4c3F)c3ncc(F)n3n2)c(=O)[nH]1` (racemic) [Example 621, 5-(3-fluoro-8-((1S,2S)-2-(7-fluoro-1-(2,2,2-trifluoroethyl)-1H-pyrazolo[4,3-c]pyridin-6-yl)cyclopropyl)imidazo[1,2-b]pyridazin-6-yl)pyrimidine-2,4(1H,3H)-dione], for which the IC50 on CD73 [1] was 1.32 nM. At CD73 [2], this molecule gave an EC50 of 0.32 nM.
`O=c1[nH]cc(-c2cc([C@H]3C[C@@H]3c3cc(OCC(F)(F)F)c4cccnc4c3)c3nccn3n2)c(=O)[nH]1` (racemic) [Example 627, 5-(8-((1S,2S)-2-(5-(2,2,2-trifluoroethoxy)quinolin-7-yl)cyclopropyl)imidazo[1,2-b]pyridazin-6-yl)pyrimidine-2,4(1H,3H)-dione] yielded an IC50 against CD73 [1] of 2.57 nM. Further, the EC50 at CD73 [2] was greater than 50 nM.
At CD73 [1], `O=c1[nH]cc(-c2cc([C@H]3C[C@@H]3c3ccc4c(C(F)(F)F)ccnc4c3)c3nccn3n2)c(=O)[nH]1` [Example 139, 5-(8-((1S,2S)-2-(4-(trifluoromethyl)quinolin-7-yl)cyclopropyl)imidazo[1,2-b]pyridazin-6-yl)pyrimidine-2,4(1H,3H)-dione] came in with an IC50 of 4.55 nM. In addition, on CD73 [2], the response was half-maximal at 296 nM (EC50).
For `N#Cc1cc(F)c([C@H]2C[C@@H]2c2cc(-c3c[nH]c(=O)[nH]c3=O)nn3ccnc23)cc1F` [Example 565, 4-((1S,2S)-2-(6-(2,4-dioxo-1,2,3,4-tetrahydropyrimidin-5-yl)imidazo[1,2-b]pyridazin-8-yl)cyclopropyl)-2,5-difluorobenzonitrile], in that order: 1.98 nM and 9.24 nM.
`O=c1[nH]cc(-c2cc(N3CC(c4ccc(OC(F)(F)F)cc4)C3)c3nccn3n2)c(=O)[nH]1` [Example 252, 5-(8-(3-(4-(trifluoromethoxy)phenyl)azetidin-1-yl)imidazo[1,2-b]pyridazin-6-yl)pyrimidine-2,4(1H,3H)-dione]: at CD73 [1], 174 nM corresponded to half-maximal inhibition (IC50). The same molecule came in with a concentration giving a half-maximal response (EC50) at CD73 [2] of 1240 nM.
